Source: patent US20070197590A1, “SUBSTITUTED DIPIPERIDINE CCR2 ANTAGONISTS” (priority 2006, published 2007)

These molecules were tested against T1, CCR2 (Homo sapiens, UniProt P41597) (assay: MCP-1 Receptor Binding Assay in THP-1 Cells). Settings: THP-1 cells, 0.5 nM 125I labeled MCP-1, 2 hours at 30° C.; read-out: Inhibition of MCP-1 Binding IC50.
T1 construct: host or cells: THP-1 cells
T1 sequence (P41597 1-360 isoform P41597-2): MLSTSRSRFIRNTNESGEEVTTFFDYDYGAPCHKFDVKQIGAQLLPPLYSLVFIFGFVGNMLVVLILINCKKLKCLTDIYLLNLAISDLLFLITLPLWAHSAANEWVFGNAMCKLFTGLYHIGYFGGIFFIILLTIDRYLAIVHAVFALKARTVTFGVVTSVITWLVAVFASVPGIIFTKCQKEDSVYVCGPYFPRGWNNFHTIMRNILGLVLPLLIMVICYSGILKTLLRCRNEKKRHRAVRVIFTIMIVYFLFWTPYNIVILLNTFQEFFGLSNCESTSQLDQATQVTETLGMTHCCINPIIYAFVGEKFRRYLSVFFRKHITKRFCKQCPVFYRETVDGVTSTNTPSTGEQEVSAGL
Method: THP-1 cells were obtained from American Type Culture Collection (Manassas, Va., USA). The THP-1 cells were grown in RPMI-1640 supplemented with 10% fetal bovine serum in a humidified 5% CO2 atmosphere at 37° C. The cell density was maintained […].
THP-1 cells were incubated with 0.5 nM ^125, labeled MCP-1 (Perkin-Elmer Life Sciences, Inc. Boston, Mass.) in the presence of varying concentrations of either unlabeled MCP-1 (R & D Systems, Minneapolis, Minn.) or test compound for 2 hours at 30° C. in a 96 well plate. Cells were then harvested onto a filter plate, dried, and 20 μL of Microscint 20 was added to each well. Plates were counted in a TopCount NXT, Microplate Scintillation & Luminescence Counter (Perkin-Elmer Life Sciences, Inc. Boston, Mass.). Blank values (buffer only) were subtracted from all values and drug treated values were compared to vehicle treated values. 1 μM cold MCP-1 was used for nonspecific binding.
Table 1 lists IC50 values for inhibition of MCP-1 binding to CCR2 obtained for test compounds of the invention.

In order of falling IC50:
1. O=C(CN1CCC(c2c[nH]c3ncccc23)CC1)C1CCN(C(=O)/C=C/c2cc(F)c(F)c(F)c2)CC1 [Compound 17, 1-(4-{2-[4-(1H-pyrrolo[2,3-b]pyridin-3-yl)-piperidin-1-yl]-acetyl}-piperidin-1-yl)-3-(3,4,5-trifluoro-phenyl)-propenone]  9.4 µM
2. O=C(Nc1ccc(F)c(F)c1)N1CCC(C(O)CN2CCC(c3cc[nH]n3)CC2)CC1 (stereo not shown) [Compound 37, 4-{1-hydroxy-2-[4-(1H-pyrazol-3-yl)-piperidin-1-yl]-ethyl}-piperidine-1-carboxylic acid (3,4-difluoro-phenyl)-amide]  8.6 µM
3. O=C(c1cc(F)c(F)c(F)c1)N1CCC(C(O)CN2CCC(c3c[nH]c4ccccc34)CC2)CC1 (stereo not shown) [Compound 8, (4-{1-hydroxy-2-[4-(1H-indol-3-yl)-piperidin-1-yl]-ethyl}-piperidin-1-yl)-(3,4,5-trifluoro-phenyl)-methanone]  6.4 µM
4. OCC(CC1CCN(C(=S)Nc2cccc(Br)c2)CC1)N1CCC(c2c[nH]c3ccccc23)CC1 (stereo not shown) [Compound 59, 4-{3-hydroxy-2-[4-(1H-indol-3-yl)-piperidin-1-yl]-propyl}-piperidine-1-carbothioic acid (3-bromo-phenyl)-amide]  6.1 µM
5. O=C(/C=C/c1ccc(Cl)c(Cl)c1)N1CCC(CC(CO)N2CCC(c3c[nH]c4ccccc34)CC2)CC1 (stereo not shown) [Compound 56]  5.7 µM
6. O=C(/C=C/c1cc(F)cc(F)c1)N1CCC(CC(CO)N2CCC(c3c[nH]c4ccccc34)CC2)CC1 (stereo not shown) [Compound 54]  5.6 µM
7. CCOC(=O)C(CN1CCC(c2ccc(OC)cc2)CC1)C1CCN(C(=O)C=Cc2cc(F)c(F)c(F)c2)CC1 (stereo not shown) [Compound 38, 3-[4-(4-methoxy-phenyl)-piperidin-1-yl]-2-{1-[3-(3,4,5-trifluoro-phenyl)-acryloyl]-piperidin-4-yl}-propionic acid ethyl ester]  4.7 µM
8. O=C(C(=O)N1CCC(c2ccc(Cl)cc2)CC1)C1CCN(C(=O)C=Cc2ccc(Cl)c(Cl)c2)CC1 [Compound 2, 1-[4-(4-chloro-phenyl)-piperidin-1-yl]-2-{1-[3-(3,4-dichloro-phenyl)-acryloyl]-piperidin-4-yl}-ethane-1,2-dione]  4.4 µM
9. Cc1cccc(/C=C/C(=O)N2CCC(C(O)CN3CCC(c4nc5ccccc5o4)CC3)CC2)c1 (stereo not shown) [Compound 47]  3.9 µM
10. O=C(/C=C/c1cc(F)c(F)c(F)c1)N1CCC(CC(CO)N2CCC(c3c[nH]c4ccccc34)CC2)CC1 (stereo not shown) [Compound 55]  3.5 µM
11. O=C(/C=C/c1ccc(Cl)c(Cl)c1)N1CCC(C(O)C(=O)N2CCC(c3ccc(Cl)cc3)CC2)CC1 (stereo not shown) [Compound 3]  3.4 µM
12. COc1ccc(C2CCN(CC(NC(=O)N(C)C)C3CCN(C(=O)C=Cc4cc(F)c(F)c(F)c4)CC3)CC2)cc1 (stereo not shown) [Compound 68, 3-(2-[4-(4-methoxy-phenyl)-piperidin-1-yl]-1-{1-[3-(3,4,5-trifluoro-phenyl)-acryloyl]-piperidin-4-yl}-ethyl)-1,1-dimethyl-urea]  2.7 µM
13. Cc1cccc(/C=C/C(=O)N2CCC(CC(CO)N3CCC(c4c[nH]c5ccccc45)CC3)CC2)c1 (stereo not shown) [Compound 57]  2.6 µM
14. O=C(/C=C/c1cc(F)cc(F)c1)N1CCC(C(O)CN2CCC(c3nc4ccccc4o3)CC2)CC1 (stereo not shown) [Compound 46]  2.1 µM
15. Cc1cccc(/C=C/C(=O)N2CCC(C(O)CN3CCC(c4cc[nH]n4)CC3)CC2)c1 (stereo not shown) [Compound 33]  1.4 µM
16. COc1ccc(C2CCN(CC(=O)C3CCN(C(=O)/C=C/c4cc(F)c(F)c(F)c4)CC3)CC2)cc1 [Compound 64, 1-(4-{2-[4-(4-methoxy-phenyl)-piperidin-1-yl]-acetyl}-piperidin-1-yl)-3-(3,4,5-trifluoro-phenyl)-propenone]  1.3 µM
17. O=C(/C=C/c1cc(F)c(F)c(F)c1)N1CCC(C(O)CN2CCC(c3cc[nH]n3)CC2)CC1 (stereo not shown) [Compound 35]  1.2 µM
18. O=C(Nc1ccc(Cl)c(Cl)c1)N1CCC(C(O)CN2CCC(c3cc[nH]n3)CC2)CC1 (stereo not shown) [Compound 36, 4-{1-hydroxy-2-[4-(1H-pyrazol-3-yl)-piperidin-1-yl]-ethyl}-piperidine-1-carboxylic acid (3,4-dichloro-phenyl)-amide]  1.1 µM
19. O=C(OCc1ccccc1)N1CCC(O)(C(O)CN2CCC(c3c[nH]c4ccccc34)CC2)CC1 (stereo not shown) [Compound 69, 4-hydroxy-4-{1-hydroxy-2-[4-(1H-indol-3-yl)-piperidin-1-yl]-ethyl}-piperidine-1-carboxylic acid benzyl ester]  0.95 µM

Same assay, conditions: test concentration of 25 μM; given where an IC50 value was not obtained; read-out: Inhibition of MCP-1 Binding, percent inhibition

In order of falling inhibition at 25 µM:
1. O=C(O)C(CC1CCN(C(=O)Nc2ccc(Cl)c(Cl)c2)CC1)N1CCC(c2c[nH]c3ccccc23)CC1 (stereo not shown) [Compound 62, 3-[1-(3,4-dichloro-phenylcarbamoyl)-piperidin-4-yl]-2-[4-(1H-indol-3-yl)-piperidin-1-yl]-propionic acid]  55%
2. CCOC(=O)C(CC1CCN(C(=O)Nc2ccc(Cl)c(Cl)c2)CC1)N1CCC(c2c[nH]c3ccccc23)CC1 (stereo not shown) [Compound 52, 3-[1-(3,4-dichloro-phenylcarbamoyl)-piperidin-4-yl]-2-[4-(1H-indol-3-yl)-piperidin-1-yl]-propionic acid ethyl ester]  53%
3. COc1ccc(C2CCN(CC(C(=O)O)C3CCN(C(=O)C=Cc4cc(F)c(F)c(F)c4)CC3)CC2)cc1 (stereo not shown) [Compound 39, 3-[4-(4-methoxy-phenyl)-piperidin-1-yl]-2-{1-[3-(3,4,5-trifluoro-phenyl)-acryloyl]-piperidin-4-yl}-propionic acid]  52%
4. CCOC(=O)C(CC1CCN(C(=O)C=Cc2cccc(C)c2)CC1)N1CCC(c2c[nH]c3ccccc23)CC1 (stereo not shown) [Compound 48, 2-[4-(1H-indol-3-yl)-piperidin-1-yl]-3-[1-(3-m-tolyl-acryloyl)-piperidin-4-yl]-propionic acid ethyl ester]  48%
5. CCOC(=O)C(CC1CCN(C(=O)C=Cc2cc(F)cc(F)c2)CC1)N1CCC(c2c[nH]c3ccccc23)CC1 (stereo not shown) [Compound 51, 3-{1-[3-(3,5-difluoro-phenyl)-acryloyl]-piperidin-4-yl}-2-[4-(1H-indol-3-yl)-piperidin-1-yl]-propionic acid ethyl ester]  48%
6. Cc1cccc(C=CC(=O)N2CCC(CC(C(=O)O)N3CCC(c4c[nH]c5ccccc45)CC3)CC2)c1 (stereo not shown) [Compound 53, 2-[4-(1H-indol-3-yl)-piperidin-1-yl]-3-[1-(3-m-tolyl-acryloyl)-piperidin-4-yl]-propionic acid]  48%
7. CC(C)(C)OC(=O)N1CCC(C(O)CN2CCC(c3c[nH]c4ccc(NS(C)(=O)=O)cc34)CC2)CC1 (stereo not shown) [Compound 63, 4-{1-hydroxy-2-[4-(5-methanesulfonylamino-1H-indol-3-yl)-piperidin-1-yl]-ethyl}-piperidine-1-carboxylic acid tert-butyl ester]  46%
8. CCOC(=O)C(CC1CCN(C(=O)C=Cc2cc(F)c(F)c(F)c2)CC1)N1CCC(c2c[nH]c3ccccc23)CC1 (stereo not shown) [Compound 50, 2-[4-(1H-indol-3-yl)-piperidin-1-yl]-3-{1-[3-(3,4,5-trifluoro-phenyl)-acryloyl]-piperidin-4-yl}-propionic acid ethyl ester]  44%
9. CCOC(=O)C(CC1CCN(C(=O)C=Cc2ccc(Cl)c(Cl)c2)CC1)N1CCC(c2c[nH]c3ccccc23)CC1 (stereo not shown) [Compound 49, 3-{1-[3-(3,4-dichloro-phenyl)-acryloyl]-piperidin-4-yl}-2-[4-(1H-indol-3-yl)-piperidin-1-yl]-propionic acid ethyl ester]  40%
